Literature values as cited in PMC4546328, “Effects of Inhibiting Dipeptidyl Peptidase-4 (DPP4) in Cows with Subclinical Ketosis” (PLoS ONE, 2015).

Design: method as in earlier work
Details: prescribing information; primarily small increase of neutrophil granulocytes counts

N[C@@H](CC(=O)N1CCn2c(nnc2C(F)(F)F)C1)Cc1cc(F)c(F)cc1F [sitagliptin]
effect on WBC: slight increase in WBC
